Data: patent publication US7795178B2, “Fungicidal active combinations spiroxamine, prothioconazole and tebuconazole” (Bayer CropScience AG, priority 2003, dated 2010)

How the values were obtained:
Format in all cases: in vivo
[1] = system: Fusarium nivale var. majus; experiment: Fusarium nivale (var. majus) test (wheat)/curative; details: curative, evaluation 11 days after inoculation
Procedure: Fusarium nivale (var. majus) Test (Wheat)/Curative To produce a suitable preparation of active compound, a commercial formulation of active compound or active compound combination is diluted with water to the desired concentration. To test for curative activity, young plants are sprayed with a conidia suspension of Fusarium nivale var. majus. The plants remain in an incubation cabin at 15° C. and 100% relative atmospheric humidity for 24 hours and are then sprayed with the active compound preparation at the stated application rate. After the spray coating has dried on, the plants remain in a greenhouse under transparent incubation hoods at a temperature of about 15° C. and a relative atmospheric humidity of about 100%. Evaluation is carried out 11 days after the inoculation. 0% means an efficacy which corresponds to that of the control, whereas an efficacy of 100% means that no infection is observed.

[2] = system: Erysiphe graminis f.sp.tritici; experiment: Erysiphe test (wheat)/protective; details: protective, application rate 125 g/ha, evaluation 6 days after inoculation
Procedure: Erysiphe Test (Wheat)/Protective To produce a suitable preparation of active compound, a commercial formulation of active compound or active compound combination is diluted with water to the desired concentration. To test for protective activity, young plants are sprayed with the active compound preparation at the stated application rate. After the spray coating has dried on, the plants are dusted with spores of Erysiphe graminis f.sp.tritici. The plants are placed in a greenhouse at a temperature of about 20° C. and a relative atmospheric humidity of about 80% to promote the development of mildew pustules. Evaluation is carried out 6 days after the inoculation. 0% means an efficacy which corresponds to that of the control, whereas an efficacy of 100% means that no infection is observed.

Leptosphaeria nodorum = Leptosphaeria nodorum test (wheat)/curative; details: curative, application rate 500 g/ha, evaluation 12 days after inoculation
Procedure: Leptosphaeria nodorum Test (Wheat)/Curative To produce a suitable preparation of active compound, a commercial formulation of active compound or active compound combination is diluted with water to the desired concentration. To test for curative activity, young plants are sprayed with a conidia suspension of Leptosphaeria nodorum. The plants remain in an incubation cabin at 20° C. and 100% relative atmospheric humidity for 48 hours and are then sprayed with the active compound preparation at the stated application rate. The plants are placed in a greenhouse at a temperature of about 15° C. and a relative atmospheric humidity of about 80%. Evaluation is carried out 12 days after the inoculation. 0% means an efficacy which corresponds to that of the control, whereas an efficacy of 100% means that no infection is observed.

Compound | Efficacy in % found ([1]; application rate 55 g/ha) | Efficacy in % [2] | Efficacy in % (Leptosphaeria nodorum) | Efficacy in % found ([1]; application rate 140 g/ha)
CC(C)(C)C(O)(CCc1ccc(Cl)cc1)Cn1cncn1 (stereo not drawn) [(III) tebuconazole, tebuconazole] | 33% | 78% | 40% | –
OC(Cc1ccccc1Cl)(Cn1nc[nH]c1=S)C1(Cl)CC1 (stereo not drawn) [(II) prothioconazole, prothioconazole] | 17% | 78% | 20% | –
CCCN(CC)CC1COC2(CCC(C(C)(C)C)CC2)O1 (stereo not drawn) [(I) spiroxamine, 8-tert-butyl-1,4-dioxaspiro[4.5]decan-2-ylmethyl(ethyl)(propyl)amine] | – | 33% | 0% | 17%
